Laboratory results reported in US10286084B2, “Compositions for the inactivation of virus replication and methods of making and using the same” (priority 2014, dated 2019).

What was measured:
p53 and p21 expression = experiment: Western blot of transfected HeLa cells for p53 and p21; format: cell-based, human; settings: Spy Cas9, 48 h post-transfection
Method: (§1) Phenotypic analysis of RGNs in HeLa was performed using the Fugene6 transfection reagent as per the manufacturer's protocol. Cells were plated at 2.5×10^5 cells per well in 6-well plates and transfected with a 3 to 1 ratio of RGN expression vector to pLCE (a GFP-expressing plasmid included to determine transfection efficiency). SiHa cells were transfected with HPV-16-specific RGN expression vectors using Lipofectamine3000 (Clontech) using the manufacturer's protocol. Cells were then harvested and lysed in SDS/β-mercaptoethanol protein lysis buffer 48 hours post transfection. Lysates were subjected to electrophoresis on 4-20% SDS-polyacrylamide gels (Bio-Rad) and transferred to nitrocellulose membranes. The membranes were then probed in 5% milk-PBS-T (PBS, 0.1% Tween 20, 0.5% bovine serum albumin) with the following antibodies: anti-Flag (Sigma F1804), a rabbit Rev polyclonal antiserum (Malim et al., 1989), anti-β-actin (Santa Cruz S.C.-47778), anti-p53 (Santa Cruz S.C.-126), anti-p21 (Santa Cruz S.C.-397), and anti-Rb (BD Pharmigen 554136). The membranes were washed in PBS-T, incubated with a species-specific secondary antibody, and then washed again in PBS-T. The membranes were incubated with Western Bright Sirius Western blot detection kit (Advansta) and signals captured using GeneSnap and quantified using GeneTools (Syngene). […]

p53 effector protein p21 = experiment: Western blot of transfected SiHa cells for p21; format: cell-based, human; settings: SiHa (HPV-16) cells, Spy Cas9
Method: as §1, with “The membranes were then probed in 5% milk-PBS-T (PBS, 0.1% Tween 20, 0.5% bovine serum albumin) with the following antibodies: anti-Flag (Sigma F1804), a rabbit Rev polyclonal antiserum (Malim et al., 1989), anti-β-actin (Santa Cruz S.C.-47778), anti-p53 (Santa Cruz S.C.-126), anti-p21 (Santa Cruz S.C.-397), and anti-Rb (BD Pharmigen 554136).” left out
All the work described thus far used the HPV-18 transformed cervical carcinoma cell line HeLa. To extend these studies, we also analyzed the human SiHa cervical carcinoma cell line, which is transformed by HPV-16 (Seedorf et al., 1987), using sgRNAs specific for HPV-16 E6 and E7, which differ in sequence from HPV-18 E6 and E7. […]

HPV-18 E6 gene = experiment: Mutagenesis spectra: PCR, cloning and sequencing of HeLa genomic DNA; format: cell-based; settings: Spy Cas9, 48 h post-transfection, of 234 DNA sequence reads
Method: (§2) HeLa cells were plated at 2.5×10^5 cells per well in 6-well plates and transfected using Fugene6 with a 3 to 1 ratio of RGN expression vector to pL/CMV/eGFP (pLCE) (Seedorf et al., 1987), which expresses eGFP, to determine transfection efficiency. Genomic DNA was extracted 48 hours post-transfection using a DNeasy kit (Qiagen) following the manufacturer's protocol. The genomic region surrounding the viral target sites was PCR amplified using GoTaq cocktail (Promega, #9PIM300) and then purified. PCR products were then denatured and reannealed to enable DNA heteroduplex formation: 95° C. for 10 min, 95° C. to 85° C. ramping at −1° C./sec, 85° C. to 25° C. at −0.25° C./sec, and 25° C. hold for 1 minute. After reannealing, products were treated with SURVEYOR nuclease and SURVEYOR enhancer S (Transgenomics) following the manufacturer's protocol, and analyzed on a 2% agarose gel. To determine the sequence spectra of the mutations introduced by HPV-18 E6- and E7-specific sgRNAs, we designed primers with unique restriction enzyme sites that bound sequences flanking the predicted RGN cleavage locations. The mutagenized HeLa genomic DNA was PCR amplified at 48 hours after transfection, cloned, sequenced, and aligned to the HeLa genome.
(§3) We next asked if we could inactivate the endogenous HPV-18 E6 and E7 genes integrated into the HeLa cell genome. As all four sgRNAs appeared to function equivalently, we focused our subsequent research on E6 sgRNA1 and E7 sgRNA1. To confirm these sgRNAs were indeed inducing the expected DNA cleavage, we used the SURVEYOR assay to determine if we could detect RGN-induced indels at the predicted Cas9 cleavage site. For this purpose, we transfected HeLa cells with a px330-based vector encoding Spy Cas9 (Cong et al., 2013) and an E6- or E7-specific sgRNA. At 48 hours post-transfection, we isolated the HeLa genomic DNA and PCR-amplified the regions of the HPV-18 genome containing either the E6 or E7 target site for Cas9. The resultant PCR fragment was then isolated, denatured and then re-annealed to produce a population of DNA heteroduplexes that were digested using SURVEYOR nuclease, which is predicted to cleave at any sites of Cas9-induced mutagenesis. […] To further characterize these mutations, we cloned the same PCR fragments derived from the HPV-18 E6 or E7 gene and then performed DNA sequencing across the predicted cleavage site located 3 bp 5′ to the Cas9 PAM sequence (Mali et al., 2013). Analysis of the HPV-18 E6 gene gave 234 DNA sequence reads, of which 19 bore an assortment of different deletion mutations while 34 contained the same insertion mutation of a single “A” residue 3 bp 5′ to the Spy Cas9 PAM motif. The remaining 181 samples analyzed contained the wildtype E6 sequence. […]

HPV-18 E7 gene = experiment: as above; format: cell-based; settings: Spy Cas9, 48 h post-transfection, of 232 DNA sequences
Method: as §2, §3

| Substance | p53 and p21 expression (p53 and p21 expression) | p21 expression (p53 effector protein p21) | DNA sequence reads bearing deletion mutations (HPV-18 E6 gene) | DNA sequence reads with insertion of a single A residue 3 bp 5′ to the PAM (HPV-18 E6 gene) | DNA sequences with deletion mutations adjacent to the predicted cleavage site (HPV-18 E7 gene) | DNA sequences with insertions of 1 or 2 bp (HPV-18 E7 gene) |
| --- | --- | --- | --- | --- | --- | --- |
| E6 sgRNA1: Spy Cas9 sgRNA for HPV-18 E6, GGCGCTTTGAGGATCCAACA; SEQ ID NO: 8 (expressed or natural sequence) | specific induction of both p53 and p21 expression | failed to induce p21 expression | 19 | 34 | – | – |
| E7 sgRNA1: Spy Cas9 sgRNA for HPV-18 E7, GGAGCAATTAAGCGACTCAG; SEQ ID NO: 10 (expressed or natural sequence) | – | – | – | – | 6 | 46 |
